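Five compound concentrations were applied to cells in 96-well plates for 48 hours; endpoints were derived by simple linear interpolation of the resulting dose-response curve. GI50: concentration for 50% inhibition of growth. TGI: concentration producing complete growth inhibition.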
Assays:
Assay in all cases: growth of human tumour cells (NCI), 48 h
786-0 renal = system: 786-0 renal
A498 renal = system: A498 renal
A549 NSCLC = system: A549 NSCLC
ACHN renal = system: ACHN renal
BT-549 breast = system: BT-549 breast
CAKI-1 renal = system: CAKI-1 renal
CCRF-CEM leukemia = system: CCRF-CEM leukemia
DU-145 prostate = system: DU-145 prostate
EKVX NSCLC = system: EKVX NSCLC
HCC-2998 colon = system: HCC-2998 colon
HCT-116 colon = system: HCT-116 colon
HL-60(TB) leukemia = system: HL-60(TB) leukemia
HOP-62 NSCLC = system: HOP-62 NSCLC
HOP-92 NSCLC = system: HOP-92 NSCLC
HS 578T breast = system: HS 578T breast
HT29 colon = system: HT29 colon
IGROV1 ovarian = system: IGROV1 ovarian
KM12 colon = system: KM12 colon
LOX IMVI melanoma = system: LOX IMVI melanoma
MALME-3M melanoma = system: MALME-3M melanoma
MCF7 breast = system: MCF7 breast
MDA-MB-231 breast = system: MDA-MB-231 breast
MDA-MB-468 breast = system: MDA-MB-468 breast
MOLT-4 leukemia = system: MOLT-4 leukemia
NCI-H226 lung = system: NCI-H226 lung
NCI-H23 lung = system: NCI-H23 lung
NCI-H460 lung = system: NCI-H460 lung
NCI-H522 lung = system: NCI-H522 lung
NCI/ADR-RES ovarian = system: NCI/ADR-RES ovarian
OVCAR-3 ovarian = system: OVCAR-3 ovarian
OVCAR-4 ovarian = system: OVCAR-4 ovarian
OVCAR-5 ovarian = system: OVCAR-5 ovarian
OVCAR-8 ovarian = system: OVCAR-8 ovarian
PC-3 prostate = system: PC-3 prostate
RXF 393 renal = system: RXF 393 renal
SF-268 CNS = system: SF-268 CNS
SF-295 CNS = system: SF-295 CNS
SF-539 CNS = system: SF-539 CNS
SK-MEL-2 melanoma = system: SK-MEL-2 melanoma
SK-MEL-28 melanoma = system: SK-MEL-28 melanoma
SK-MEL-5 melanoma = system: SK-MEL-5 melanoma
SK-OV-3 ovarian = system: SK-OV-3 ovarian
SN12C renal = system: SN12C renal
SNB-19 CNS = system: SNB-19 CNS
SNB-75 CNS = system: SNB-75 CNS
SW-620 colon = system: SW-620 colon
T-47D breast = system: T-47D breast
TK-10 renal = system: TK-10 renal
U251 CNS = system: U251 CNS
UACC-257 melanoma = system: UACC-257 melanoma
UACC-62 melanoma = system: UACC-62 melanoma
UO-31 renal = system: UO-31 renal

For `Cn1cc(-c2cc3nc(-c4cn(C)c5ncccc45)cc(N)n3n2)c2ccccc21`, the GI50 (786-0 renal) was 1.68 µM, the TGI (786-0 renal) was 3.16 µM and the GI50 (A498 renal) was 17.6 µM. For the same molecule, the TGI (A498 renal) was 37 µM, the GI50 (A549 NSCLC) was 4.6 µM and the TGI (A549 NSCLC) was over 100 µM. It also gave a GI50 (ACHN renal) of 2.6 µM, a TGI (ACHN renal) of 7.42 µM and a GI50 (BT-549 breast) of 10.2 µM. For the same molecule, the TGI (BT-549 breast) was 24.3 µM, the GI50 (CAKI-1 renal) was 3.74 µM and the TGI (CAKI-1 renal) was 19.1 µM. The GI50 (CCRF-CEM leukemia) was 2.52 µM, the TGI (CCRF-CEM leukemia) was 6.49 µM and the GI50 (DU-145 prostate) was 9.59 µM. For the same molecule, the TGI (DU-145 prostate) was 52.9 µM, the GI50 (EKVX NSCLC) was 10.7 µM and the TGI (EKVX NSCLC) was 51.3 µM. It also gave a GI50 (HCC-2998 colon) of 2.26 µM, a TGI (HCC-2998 colon) of 5.44 µM and a GI50 (HCT-116 colon) of 2.56 µM. The TGI (HCT-116 colon) was 6.9 µM, the GI50 (HL-60(TB) leukemia) was 2.33 µM and the TGI (HL-60(TB) leukemia) was 5.11 µM. For the same molecule, the GI50 (HOP-62 NSCLC) was 4.5 µM, the TGI (HOP-62 NSCLC) was 20.7 µM and the GI50 (HOP-92 NSCLC) was 2.93 µM. For the same molecule, the TGI (HOP-92 NSCLC) was 8.33 µM, the GI50 (HS 578T breast) was 2.48 µM and the TGI (HS 578T breast) was 8.08 µM. The GI50 (HT29 colon) was 2.15 µM, the TGI (HT29 colon) was 6.22 µM and the GI50 (IGROV1 ovarian) was 2.84 µM. For the same molecule, the TGI (IGROV1 ovarian) was 8.11 µM, the GI50 (KM12 colon) was 3.84 µM and the TGI (KM12 colon) was over 100 µM. The GI50 (LOX IMVI melanoma) was 2.15 µM, the TGI (LOX IMVI melanoma) was 4.65 µM and the GI50 (MALME-3M melanoma) was 1.86 µM. It also gave a TGI (MALME-3M melanoma) of 3.3 µM, a GI50 (MCF7 breast) of 3.38 µM and a TGI (MCF7 breast) of 24.2 µM. For the same molecule, the GI50 (MDA-MB-231 breast) was 2.99 µM, the TGI (MDA-MB-231 breast) was 9.7 µM and the GI50 (MDA-MB-468 breast) was 2.43 µM. It also gave a TGI (MDA-MB-468 breast) of 7.76 µM, a GI50 (MOLT-4 leukemia) of 2.38 µM and a TGI (MOLT-4 leukemia) of 8.9 µM. For the same molecule, the GI50 (NCI-H226 lung) was 2.7 µM, the TGI (NCI-H226 lung) was 7.12 µM and the GI50 (NCI-H23 lung) was 10 µM. For the same molecule, the TGI (NCI-H23 lung) was 41.2 µM, the GI50 (NCI-H460 lung) was 3.75 µM and the TGI (NCI-H460 lung) was 14.7 µM. For the same molecule, the GI50 (NCI-H522 lung) was 2.35 µM, the TGI (NCI-H522 lung) was 5.91 µM and the GI50 (NCI/ADR-RES ovarian) was 5.02 µM. The TGI (NCI/ADR-RES ovarian) was 24.9 µM, the GI50 (OVCAR-3 ovarian) was 3.08 µM and the TGI (OVCAR-3 ovarian) was 11.4 µM. It also gave a GI50 (OVCAR-4 ovarian) of 2.6 µM, a TGI (OVCAR-4 ovarian) of 8.09 µM and a GI50 (OVCAR-5 ovarian) of 8.81 µM. It also gave a TGI (OVCAR-5 ovarian) of 98.9 µM, a GI50 (OVCAR-8 ovarian) of 5.63 µM and a TGI (OVCAR-8 ovarian) of over 100 µM. For the same molecule, the GI50 (PC-3 prostate) was 5.52 µM, the TGI (PC-3 prostate) was 55 µM and the GI50 (RXF 393 renal) was 2.01 µM. It also gave a TGI (RXF 393 renal) of 4.01 µM, a GI50 (SF-268 CNS) of 17.2 µM and a TGI (SF-268 CNS) of over 100 µM. The GI50 (SF-295 CNS) was 1.73 µM, the TGI (SF-295 CNS) was 3.63 µM and the GI50 (SF-539 CNS) was 1.8 µM. For the same molecule, the TGI (SF-539 CNS) was 3.71 µM, the GI50 (SK-MEL-2 melanoma) was 2.17 µM and the TGI (SK-MEL-2 melanoma) was 5.5 µM. The GI50 (SK-MEL-28 melanoma) was 1.71 µM, the TGI (SK-MEL-28 melanoma) was 3.12 µM and the GI50 (SK-MEL-5 melanoma) was 3.44 µM. For the same molecule, the TGI (SK-MEL-5 melanoma) was 15.7 µM, the GI50 (SK-OV-3 ovarian) was 21 µM and the TGI (SK-OV-3 ovarian) was 69.3 µM. The GI50 (SN12C renal) was 2.97 µM, the TGI (SN12C renal) was 14.2 µM and the GI50 (SNB-19 CNS) was 5.11 µM. The TGI (SNB-19 CNS) was 26.7 µM, the GI50 (SNB-75 CNS) was 4.97 µM and the TGI (SNB-75 CNS) was 24.6 µM. For the same molecule, the GI50 (SW-620 colon) was 4.38 µM, the TGI (SW-620 colon) was over 100 µM and the GI50 (T-47D breast) was 5.77 µM. For the same molecule, the TGI (T-47D breast) was 74.7 µM, the GI50 (TK-10 renal) was 11.6 µM and the TGI (TK-10 renal) was 51.6 µM. The GI50 (U251 CNS) was 3.16 µM, the TGI (U251 CNS) was 21.4 µM and the GI50 (UACC-257 melanoma) was 1.83 µM. The TGI (UACC-257 melanoma) was 3.71 µM, the GI50 (UACC-62 melanoma) was 1.73 µM and the TGI (UACC-62 melanoma) was 3.34 µM. For the same molecule, the GI50 (UO-31 renal) was 4.77 µM and the TGI (UO-31 renal) was 40.9 µM.

For `CCN(CC)CCn1c(=O)c2cc(OC)c(OC)cc2c2ccc3cc4c(cc3c21)OCO4`, the GI50 (MDA-MB-468 breast) was 0.84 µM and the TGI (MDA-MB-468 breast) was 19.8 µM.

`O=c1oc2ccc(Cl)cc2c(=O)n1-c1ccc(F)cc1F` gave a GI50 (MDA-MB-468 breast) of 1.98 µM and a TGI (MDA-MB-468 breast) of 5.71 µM.

`CC1=C2[C@@H](CC1)[C@]1(C)O[C@@](C(C)C)(C[C@H]1OC(=O)CO)[C@H]2OC(=O)CCCc1ccccc1` showed a GI50 (MDA-MB-468 breast) of 12.4 µM and a TGI (MDA-MB-468 breast) of 26.3 µM.

`Fc1ccc(-c2ncn(CCCN3CCOCC3)c2-c2ccncc2)cc1` was tested, and the GI50 (MDA-MB-468 breast) was over 25 µM and the TGI (MDA-MB-468 breast) was over 25 µM.

`CCCCc1n(Cc2ccc3ccccc3n2)cc[n+]1Cc1ccc2ccccc2n1` showed a GI50 (MDA-MB-468 breast) of 0.244 µM and a TGI (MDA-MB-468 breast) of 1.64 µM.

`Cc1c[nH]c(=O)n(Cc2nnc(CCC(=O)c3nc4ccccc4[nH]3)o2)c1=O` was tested, and the GI50 (MDA-MB-468 breast) was 0.156 µM and the TGI (MDA-MB-468 breast) was 0.553 µM.

Reference: PubChem BioAssay (NCI)
